The source of these data is article PMC9504583, “Stability Study, Quantification Method and Pharmacokinetics Investigation of a Coumarin–Monoterpene Conjugate Possessing Antiviral Properties against Respiratory Syncytial Virus” (Pharmaceuticals, 2022).

Read-outs that look alike come from different tables or passages of the source.

The test system of series [1] is RSV serotype B. Details: method as in PMID 34946573. The conditions noted are these: cited from earlier work.
Series [2] can be described thus: stability study in whole mice blood in vitro. Type of series: in vitro ADME. The conditions noted are these: spike 1000 ng/mL, aliquots 5-240 min, peak area. As for the experimental part: To study the stability of K-142 in whole blood of mice, a spike containing the substance at the concentration of 1000 ng/mL was prepared. After preparation, the spike was placed on a shaker and shaken throughout the experiment. Aliquots of the spike with a volume of 50 μL were taken after 5, 10, 15, 30, 60, 120, 180 and 240 min, after which the sample was prepared and analyzed, and K-142 peak area in obtained chromatograms was measured.
It can be seen from the chart (Figure S1) showing the K-142 peak area in the chromatogram that no decrease in its concentration happens for at least 4 h.

The nature of series [3]: pharmacokinetics study of K-142 after oral administration to mice. Type of series: in vivo, CD1 mice. The conditions noted are these: 20 mg/kg. As for the experimental part: The method has been applied to a pharmacokinetic study of the agent K-142 in mice (n = 8). The substance was administered to the animals orally at a dose of 20 mg/kg. After drug administration, blood samples were taken from the tail vein and treated with the precipitating solution, and the samples were analyzed.
The maximum values of concentrations observed for animals vary in the range from 15 to 90 ng/mL, and the average value is about 46 ng/mL. Thereafter, the content of the substance in the blood gradually decreases, and almost complete excretion is achieved in about 2 h. As the average concentration of K-142 in mice blood was c.a. 3.1 ng/mL, which is below LLOQ, this time point was not included in calculation of pharmacokinetics parameters and is shown in Figure 5 just for information. Due to the same reason, the data on the concentrations of the agent K-142 in animal #8 were also not taken into account for the calculation. The averaged values of pharmacokinetic parameters were calculated for a period of time from 0 to 60 min and are given in Table 1.
Experiments were performed on adult CD1 mice (n = 8) weighing 30–40 g. Animals were obtained from the animal facility of the Institute of Cytology and Genetics SB RAS and kept under standard conditions with free access to food and water. All experiments were performed in accordance with the “European Convention for the Protection of Vertebrate Animals Used for Experimental and other Scientific Purposes”, 1986.
Pharmacokinetics of the agent K-142 was studied at a dose of 20 mg/kg after its oral administration. To prepare the dosage form, a weight of the substance was mixed with c.a. 20 µL of Tween-80 followed by the dilution of the sample with physiological saline to a volume of 0.2 mL per 10 g of mouse bodyweight. Blood aliquots (10 µL) were taken in duplicate from the animal tail vein 10, 20, 30, 45 min, 1, 1.5, 2, 2.5 3, 4, 5 and 6 h after substance administration. The samples were mixed with the precipitation solution and processed according to the protocol and analyzed. Pharmacokinetic parameters were calculated using PKSolver and are presented as mean ± standard error of mean (SEM).

Series [4] relates to RSV serotype A. Also noted: method as in PMID 34946573. The conditions noted are these: cited from earlier work.
On the set-up of series [5]: method as in PMID 27420975. The conditions noted are these: rats, cited from earlier work.
On the set-up of series [6]: method as in PMID 31847686. The conditions noted are these: ICR mice, oral, cited from earlier work.
Setting [7] is: CD1, mouse, whole blood, mean ± SEM, calculated 0-60 min, animal #8 excluded.

For the compound `CC1(C)C2CC=C(COc3ccc4c5c(c(=O)oc4c3)CCCC5)C1C2` (centres unmarked) [K-142], in series [1], the half-inhibitory concentration (IC50) (as a rule, the concentration at which inhibition is half-maximal) is 5 µM. Also, the “time with no decrease in concentration (stability)” value in series [2] is on record as “at least 4 h”. Also, the CL result in series [3] (mean ± SEM, calculated 0-60 min, animal #8 excluded) is reported as “(1.3 ± 0.2) × 10^−2 (mg/kg)/(ng/mL)/min”. Moreover, in series [3] (whole blood), the “time at which maximum concentration is reached” value is on record as 10 min and the “time to almost complete excretion” value is given as “about 2 h”. Besides, the concentration at 2 h in series [3] (CD1, mouse, whole blood, below LLOQ (5 ng/mL), not used for PK calculation, read-out: average concentration in mice blood at about 2 h) is approximately 3.1 ng/mL. Besides, in series [3] (setting [7]), the total exposure AUC(0-inf) – broadly, total exposure, with the tail of the curve extrapolated – was 26.2 ng·h/mL; the Cmax (as a rule, the highest concentration seen after dosing) was 63.4 ± 19.1 ng/mL; the half-life (commonly how long it takes for the measured level to halve) is 27.7 ± 5.4 min. Besides, the MRT inf in series [3] (CD1, mouse, whole blood, mean ± SEM, calculated 0-60 min, animal #8 excluded, read-out: MRT0–∞ (converted)) was 40.5 min. Moreover, in series [4] (RSV serotype A), the half-inhibitory concentration (IC50) is 5 µM. The “selectivity index (SI)” value in series [4] (RSV, serotype not specified for SI) is on record as 77.
As to `CC(C)=CCC/C(C)=C/COc1ccc2ccc(=O)oc2c1` [auraptene], in series [5] (oral, 100 mg/kg, plasma), the Tmax (in general, the time from dosing to the highest level) was 108.0 ± 25.3 min and the “maximum concentration in blood plasma” value is 1719 ± 384.3 ng/mL. In addition, the bioavailability – broadly, dose-corrected exposure relative to a reference, in per cent – in series [5] is on record as 8.5%.
With `CC(C)=CCc1c(O)ccc2ccc(=O)oc12` [osthenol], in series [6] (5 mg/kg), the Cmax is recorded as 66.1 ± 3.2 ng/mL and the time of peak concentration (Tmax) was 36.3 ± 13.8 min. Besides, in series [6] (20 mg/kg), the Cmax was 56.0 ± 29.1 ng/mL and the time of peak concentration (Tmax) is 6.3 ± 1.3 min. Also, the “bioavailability (in words)” value in series [6] (5 and 20 mg/kg) is “very low bioavailability”.
